The supplement of paper PMC10307832

How the values were obtained:
Assay in all cases: relative viability (nuclei count vs DMSO), 5 days (fraction); higher = more cells survive
[1] = compound: NC(=O)[C@@H](CCC(F)(F)F)N(Cc1ccc(-c2ncon2)cc1F)S(=O)(=O)c1ccc(Cl)cc1 [Avagacestat] + CC(=O)c1c(C)c2cnc(Nc3ccc(N4CCNCC4)cn3)nc2n(C2CCCC2)c1=O [Palbociclib] (partner 0.5 µM)
Procedure, shortened: (§1)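 After 5 days of treatment, lung cancer cells in 1536-well plates were fixed and stained in a single step (final 0.05% Triton X-100, 1% formaldehyde, 1 ug/ml Hoechst) and their nuclei counted on 4× images. Treatment had been applied by pin tool the day after seeding as one drug alone or as a fixed anchor-drug dose with five library-drug doses (not always all listed) in √10 steps. Relative viability is the nuclei count of treated wells divided by that of vehicle wells, and values are medians of duplicate plates.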

Avagacestat + Dasatinib = compound: NC(=O)[C@@H](CCC(F)(F)F)N(Cc1ccc(-c2ncon2)cc1F)S(=O)(=O)c1ccc(Cl)cc1 [Avagacestat] + Cc1nc(Nc2ncc(C(=O)Nc3c(C)cccc3Cl)s2)cc(N2CCN(CCO)CC2)n1 [Dasatinib] (partner 0.075 µM)
Procedure, shortened: as §1

Avagacestat + Alpelisib = compound: NC(=O)[C@@H](CCC(F)(F)F)N(Cc1ccc(-c2ncon2)cc1F)S(=O)(=O)c1ccc(Cl)cc1 [Avagacestat] + Cc1nc(NC(=O)N2CCC[C@H]2C(N)=O)sc1-c1ccnc(C(C)(C)C(F)(F)F)c1 [Alpelisib] (partner 2 µM)
Procedure, shortened: as §1

Avagacestat + Bortezomib = compound: NC(=O)[C@@H](CCC(F)(F)F)N(Cc1ccc(-c2ncon2)cc1F)S(=O)(=O)c1ccc(Cl)cc1 [Avagacestat] + CC(C)C[C@H](NC(=O)[C@H](Cc1ccccc1)NC(=O)c1cnccn1)B(O)O [Bortezomib] (partner 0.002 µM)
Procedure, shortened: as §1

Row | Cell Line | relative viability ([1]; first compound 0.08 µM) | relative viability ([1]; first compound 0.253 µM) | relative viability ([1]; first compound 0.8 µM) | relative viability ([1]; first compound 2.53 µM) | relative viability ([1]; first compound 8 µM) | relative viability (Avagacestat + Dasatinib; first compound 0.08 µM) | relative viability (Avagacestat + Dasatinib; first compound 0.253 µM) | relative viability (Avagacestat + Dasatinib; first compound 0.8 µM) | relative viability (Avagacestat + Dasatinib; first compound 2.53 µM) | relative viability (Avagacestat + Dasatinib; first compound 8 µM) | relative viability (Avagacestat + Alpelisib; first compound 0.08 µM) | relative viability (Avagacestat + Alpelisib; first compound 0.253 µM) | relative viability (Avagacestat + Alpelisib; first compound 0.8 µM) | relative viability (Avagacestat + Alpelisib; first compound 2.53 µM) | relative viability (Avagacestat + Alpelisib; first compound 8 µM) | relative viability (Avagacestat + Bortezomib; first compound 0.08 µM) | relative viability (Avagacestat + Bortezomib; first compound 0.253 µM) | relative viability (Avagacestat + Bortezomib; first compound 0.8 µM) | relative viability (Avagacestat + Bortezomib; first compound 2.53 µM) | relative viability (Avagacestat + Bortezomib; first compound 8 µM)
1 | NCI-H3122 | 0.198 | 0.191 | 0.248 | 0.221 | 0.182 | 0.944 | 0.759 | 0.843 | 0.815 | 0.774 | 0.903 | 0.966 | 0.802 | 0.813 | 0.739 | 1.06 | 1.03 | 1.05 | 1.01 | 0.969
2 | UMC-11 | 0.325 | 0.312 | 0.323 | 0.315 | 0.34 | 0.633 | 0.598 | 0.647 | 0.541 | 0.473 | 1.22 | 1.19 | 1.21 | 0.885 | 0.933 | 0.915 | 0.563 | 0.722 | 0.749 | 0.414
3 | EMC-BAC-2 | 0.539 | 0.577 | 0.556 | 0.52 | 0.543 | 0.342 | 0.298 | 0.301 | 0.292 | 0.308 | 0.897 | 0.81 | 0.748 | 0.653 | 0.717 | 1.22 | 1.17 | 1.23 | 1.08 | 1.11
4 | NCI-H1651 | 0.521 | 0.51 | 0.569 | 0.46 | 0.504 | 0.477 | 0.426 | 0.454 | 0.38 | 0.342 | 1.05 | 1.3 | 1.15 | 0.978 | 0.909 | 1.06 | 1.07 | 1.05 | 0.944 | 0.933
5 | NCI-H650 | 0.313 | 0.361 | 0.314 | 0.275 | 0.308 | 0.499 | 0.398 | 0.481 | 0.456 | 0.451 | 1.12 | 1.57 | 1.21 | 1.32 | 1.19 | 1.08 | 0.948 | 1.16 | 1.03 | 0.735
6 | LOU-NH91 | 0.533 | 0.482 | 0.574 | 0.52 | 0.525 | 0.612 | 0.509 | 0.618 | 0.443 | 0.493 | 0.712 | 0.724 | 0.779 | 0.608 | 0.738 | 0.541 | 0.509 | 0.51 | 0.478 | 0.485
7 | H3255 | 0.312 | 0.361 | 0.331 | 0.373 | 0.401 | 0.362 | 0.347 | 0.57 | 0.379 | 0.313 | 0.759 | 0.736 | 0.836 | 0.678 | 0.741 | 1.02 | 0.966 | 1.08 | 0.817 | 0.788
8 | NCI-H460 | 0.128 | 0.104 | 0.14 | 0.146 | 0.131 | 0.625 | 0.59 | 0.747 | 0.402 | 0.475 | 0.724 | 0.538 | 0.688 | 0.472 | 0.357 |  |  | 1.36 | 1.18 | 1.15
